Consider one molecule from article PMC8047743 (ACS Omega, 2021).

The test system of one series is HepG2 cells. Briefly: In vitro cytotoxicity on HepG2 cells. The format is cell-based. Particulars: 50 μM, 24 h, MTT.
The conditions of series [1]: cited from earlier work.

Regarding `Nc1c2c(nc3ccccc13)CCCC2` [tacrine, Tacrine], in the series with HepG2 cells, the “inhibitory rate (%) on HepG2 cells” value amounted to 49.91 ± 0.61%. For the same molecule, the “patients with increased serum alanine aminotransferase levels” value in series [1] was “about 30%”.
